Counter-ions that a name gives are not always drawn.
Columns and labels:
MDCK cells = assay: Inhibition of PGE2-stimulated in vitro cyst formation in 3D culture of MDCK cells; assay type: cell-based; conditions: total cyst area (%) compared to 100% for (DMSO + PGE2) and 0% for DMSO control, 300 nM PGE2
Procedure: HEK 293 and MDCK cells (Public Health England, Cell Culture Collections) were maintained in Dulbecco's Modified Eagle's Medium (DMEM) supplemented with 10% (v/v) fetal bovine serum (FBS) (Seralab), 2 mM L-glutamine and 100 U/ml penicillin streptomycin cocktail (ThermoFisher); termed complete media. Clonal HEK 293 cell lines were maintained in complete media supplemented with 0.6 mg/mL G418 (Enzo Life Sciences). Mouse inner medullary collecting duct (m-IMCD3) cells [American Type Culture Collection (ATCC)] were maintained in media consisting of DMEM/Hams F-12 50/50 Mix (DMEM F12; Corning) supplemented with penicillin streptomycin cocktail (100 U/ml) and FBS (10% v/v) (DMEM F12-10% FBS).
In this study, the well-established three-dimensional (3D) MDCK cell model is used to investigate the effects of PDE4 long form activators on the formation of kidney cysts and evaluate their potential in the treatment of polycystic kidney diseases. 3D cysts are generated based on the method of Mao et al. (Mao, Z., Streets, A. J., Ong, A. C. M. Am. J. Physiol. Renal Physiol. 300 (6): F1375-F1384, 2011), with some modifications.
The assay is conducted in the wells of a 96-well plate culture dish using a total volume of 130 μl of collagen suspension in growth media for each matrix plug per individual well. Rat Collagen I (Fisher Scientific) is prepared on ice by neutralising with 1M NaOH and diluting with a 2×volume of DMEM-2% FBS. 30 μl of collagen/Media mix is added into the well of a 96 well plate and the collagen is set to a gel by incubating at 37° C. for at least 15 minutes. A second layer of 100 μl collagen/Matrigel suspension containing MDCK cells (1.0×10^4 MDCK cells per well) is then layered over the first layer and the collagen/cell mix again set to a gel by incubating at 37° C. 100 μl DMEM growth media is added and cells are incubated at 37° C. for 24 hours. 24 hours after cell seeding, DMEM-2% FBS is added along with the test compound indicated in the presence of 300 nM prostaglandin E2 (PGE2) (Sigma Aldrich) in quadruplicate wells per condition. Media, together with the test compound and PGE2 are replenished every 3 days for 10-15 days.
After 10-15 days of culture z stack images of the wells are captured using the Nikon Eclipse Ti2-E microscope. Nikon General Analysis software is used to measure the following parameters in each well: the mean cyst area, the number of cysts, and the total cyst area.
PDE4 long form activators inhibited in vitro cyst formation in MDCK cells. Data are shown in Table 6 as total cyst area (%), compared to 100% for (DMSO+PGE2) and 0% for DMSO control.

m-IMCD3 cells = assay: Inhibition of PGE2-stimulated in vitro cyst formation in 3D culture of m-IMCD3 cells; assay type: cell-based, mouse; conditions: Mus musculus, mIMCD3, 144 h; 10 μM test compound; mean cyst area (%) compared to 100% for (DMSO + PGE2) and 0% for DMSO control; 100 nM PGE2; 6 days; read-out: % Cyst area after incubation with 10 μM test compound
Method in brief: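 Mouse m-IMCD3 cells grown in 3D collagen I/Matrigel gels. From 18-24 h after plating, compound (0.1% DMSO) plus 100 nM PGE2 were added and replenished at 2-3 days. After 6 days, imaging gave mean cyst area, scaled to 100% for DMSO+PGE2 and 0% for DMSO alone.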

m-IMCD3 cell culture = assay: Reduction of cAMP levels in m-IMCD3 cell culture media (cAMP ELISA); assay type: cell-based, mouse; conditions: compared to 100% for (DMSO + PGE2)
From the text: Experiment 4a: Reduction of cAMP Levels in m-IMCD3 Cell Culture Treated with PDE4 Long Form Activators Activation of intracellular PDE4 long forms leads to a reduction of both intracellular cAMP and externalised cAMP (Omar et al., PNAS 116: 13320-13329, 2019). This reduction may be measured in the cell culture media supernatant of 3D cystic cell cultures, such as in the m-IMCD3 cell cyst suppression assay described in Experiment 4.
Following the completion of the m-IMCD3 cell cyst suppression assay, the cAMP levels in the assay media from individual assay wells was measured using a cAMP ELISA kit (Enzo Life Sciences) according to the manufacturer's instructions.
Treatment with PDE4 long form activators reduced cAMP levels in PGE2-stimulated m-IMCD3 cell culture.

Row | SMILES | % Cyst area after incubation with 1 μM test compound (MDCK cells) | activity at 10 µM (m-IMCD3 cells) | cAMP level (% of PGE2-stimulated) after incubation with 10 μM test compound (m-IMCD3 cell culture)
1 | O=C(N[C@H]1CCOc2ccccc21)c1ccc2nc(N3CCNCC3)sc2c1 [Example 83, (S)-N-(chroman-4-yl)-2-(piperazin-1-yl)benzo[d]thiazole-6-carboxamide hydrochloride] | −1% | 6% | 
2 | O=C(NC1CCC(F)(F)CC1)c1ccc2nc(N3C4CCC3CNC4)sc2c1 [Example 240, 2-(3,8-diazabicyclo[3.2.1]octan-8-yl)-N-(4,4-difluorocyclohexyl)-benzo[d]thiazole-6-carboxamide] |  | 5% | 41%
3 | CN1CCC(c2nc3ccc(C(=O)NC4CCCC4)cc3s2)CC1 [Example 151, N-cyclopentyl-2-(1-methylpiperidin-4-yl)benzo[d]thiazole-6-carboxamide] |  | 10% | 54%
4 | O=C(NC1CCC(F)(F)CC1)c1ccc2nc(N3CC4CCC(C3)N4CCO)sc2c1 [Example 247, N-(4,4-difluorocyclohexyl)-2-(8-(2-hydroxyethyl)-3,8-diazabicyclo[3.2.1]octan-3-yl)benzo[d]thiazole-6-carboxamide] | 1% |  | 
5 | COc1c(C(=O)NC2CCCC2)ccc2nc(N3C4CCC3CNC4)sc12 [Example 236, 2-(3,8-diazabicyclo[3.2.1]octan-8-yl)-N-cyclopentyl-7-methoxybenzo[d]thiazole-6-carboxamide] | 20% |  | 
6 | O=C(NC1CCC(F)(F)CC1)c1ccc2nc(C3CCN(CCO)CC3)sc2c1 [Example 174, N-(4,4-difluorocyclohexyl)-2-(1-(2-hydroxyethyl)piperidin-4-yl)benzo[d]thiazole-6-carboxamide] |  |  | 27%
7 | CC(C)NC(=O)c1cc(C#N)c2nc(N3C4CCC3CNC4)sc2c1 [Example 238, 2-(3,8-diazabicyclo[3.2.1]octan-8-yl)-4-cyano-N-isopropylbenzo[d]thiazole-6-carboxamide] | 24% |  | 

— patent publication US20240150339A1, “Compounds and Their Use as PDE4 Activators” (Mironid Limited, priority 2021, published 2024)
